Results published in EP2420510B1, “Nicotinoyl peptide derivatives and cosmetic composition comprising the same” (BIO-FD&C Co., Ltd., priority 2010, dated 2013).
Residues, ends and D or L forms follow the SMILES beside them.

What was measured:
Human fibroblasts = experiment: Cytotoxicity test (MTT, cell growth effect); format: cell-based; settings: 100 µM, 24 hours, MTT absorbance at 570 nm relative to purified water control (=100)
Experimental: (§1) 50 µl of 3-(4,5-dimethylthiazol-2-yl)-2,5-diphenyltetrazolium bromide (MTT, Sigma M5655, USA) solution (2.5 mg/mℓ) was added to the culture solution, followed by further culturing for 3 hours. Then, the culture solution was centrifuged to remove a supernatant, and 200 µl of dimethylsulfoxide (DMSO, Sigma D2650, USA) was added to each well and vortexed for 20 minutes to dissolve formazan crystals formed. 100 µl of the resulting solution was added to a 96-well plate and its absorbance was measured at 570 nm with enzyme-linked immunosorbent assay (ELISA).

iNOS = experiment: Anti-inflammatory activity test (iNOS activity inhibition test; nitric oxide by Griess reagent after LPS); format: cell-based, murine; settings: Mus musculus; amount of nitric oxide produced relative to group treated with LPS only (=100); 100 µM pre-treatment 18 hours, then LPS 24 hours, Raw264.7 cells; read-out: Yields (%)
Experimental: Raw264.7 cells (murine macrophage cell line) were suspended in 10% fetal bovine serum-Dulbecco's modified Eagle's medium (FBS-DMEM) without […] (GIBCO) in […] and seed to a 24-well plate.
Then, […] of lipopolysaccharide (LPS, Sigma) was added and cultured for 24 hours. Afterwards, 100µℓ of the obtained supernatant was added to a 96-well plate and the same amount of Griess reagent (Sigma) was added, followed by light vortexing at room temperature for 10 minutes. The absorbance was measured at 570 nm.
The calibration curve was prepared using sodium nitrite as a standard, and the amount of nitric oxide produced in the culture solution was calculated. […]

[1] = Cytotoxicity test (MTT, cell growth effect); format: cell-based; settings: human fibroblasts, MTT absorbance at 570 nm relative to purified water control (=100)
Experimental: as §1

[2] = test system: Human fibroblasts (primary cell line, CCD-986sk); settings: 100 µM, 24 hours, CCD-986sk fibroblasts, PIP ELISA absorbance at 450 nm relative to purified water control (=100)
Experimental: Human fibroblasts (primary cell line, CCD-986sk) were seeded to a plate and cultured in Dulbecco's modified Eagle's medium (DMEM) supplemented with penicillin (100 IU/ml), streptomycin (100µg/ml) and 10% fetal bovine serum (FBS) at 37 °C with 5% CO2.
The cultured cells were divided to a 48-well plate in 5×10^4 cells/well and cultured for 24 hours. […] The amount of collagen generated in the culture solution was measured with procollagen type I C-peptide (PIP) (Takara, MK101) ELISA.
After 100 µℓ of antibody-PoD conjugate solution was added to each well, 20 µℓ of the culture solution diluted to 1/5 and standard solution were added and cultured at 37 °C for 3 hours. Then, each well was washed four times with 400 µℓ of PBS. 100 µℓ of color coupler was added and cultured at room temperature for 15 minutes. Then, 100 µℓ of IN sulfuric acid was added and the absorbance was measured at 450 nm with a ELISA reader.
Collagen generation activity = (Absorbance of peptide treated group)/(Absorbance of control) X 100 [formula]

SMILES	Cell Growth Effect (%) (Human fibroblasts)	activity at 100 µM (iNOS) [%]	viability at 24 h, 100 µM [1] [%]	Collagen Generation Activity (%) [2] [%]
CC(C)C[C@H](NC(=O)[C@H](Cc1ccccc1)NC(=O)CNC(=O)CNC(=O)[C@H](Cc1ccc(O)cc1)NC(=O)c1cccnc1)C(=O)N[C@@H](CCCNC(=N)N)C(=O)N[C@@H](CCCCN)C(=O)N[C@@H](Cc1ccc(O)cc1)C(=O)N1CCC[C@H]1C(=O)O [Example 3, nicotinoyl-nonapeptide (tyrosyl-glycyl-glycyl-phenylalanyl-leucyl-arginyl-lysyl-tyrosyl-proline (SEQ ID No:3))] (HELM PEPTIDE1{[O=C(c1cccnc1)[*:2]].Y.G.G.F.L.R.K.Y.P}$$$$V2.0)	99.1	–	–	–
O=C(O)CNC(=O)[C@H](CS)NC(=O)CC[C@H](NC(=O)c1cccnc1)C(=O)O [Comparative Example 1, nicotinoyl-tripeptide (γ-glutamyl-cysteinyl-glycine (SEO ID No:13))]	98.3	–	–	–
CC(C)C[C@H](NC(=O)[C@H](Cc1ccccc1)NC(=O)CNC(=O)CNC(=O)[C@H](Cc1ccc(O)cc1)NC(=O)c1cccnc1)C(=O)N[C@@H](CCCNC(=N)N)C(=O)N[C@@H](CCCCN)C(=O)N[C@@H](Cc1ccc(O)cc1)C(=O)N1CCC[C@H]1C(=O)N[C@@H](CCCCN)C(=O)O [Example 4, nicotinoyl-decapeptide (tyrosyl-glycyl-glycyl-phenylalanyl-leucyl-arginyl-lysyl-tyrosyl-prolyl-lycine (SEQ ID No:4))] (HELM PEPTIDE1{[O=C(c1cccnc1)[*:2]].Y.G.G.F.L.R.K.Y.P.K}$$$$V2.0)	98.8	–	–	–
CSCC[C@H](NC(=O)[C@H](Cc1ccccc1)NC(=O)CNC(=O)CNC(=O)[C@H](Cc1ccc(O)cc1)NC(=O)c1cccnc1)C(=O)O [Example 1, nicotinoyl-pentapeptide (tyrosyl-glycyl-glycyl-phenylalanyl-methionine (SEQ ID No:1))]	102.1	–	–	–
CC(C)C[C@H](NC(=O)[C@H](Cc1ccccc1)NC(=O)CNC(=O)CNC(=O)[C@H](Cc1ccc(O)cc1)NC(=O)c1cccnc1)C(=O)O [Example 2, nicotinoyl-pentapeptide (tyrosyl-glycyl-glycyl-Phenylalanyl-leucine (SEO ID No:2))]	101.3	–	–	–
O=C(O)c1cccnc1 [Nicotinic acid]	–	98.8	102	105.2
NC(=O)c1cccnc1 [Nicotinamide]	–	96.1	103	108.8
C[C@@H](O)[C@H](NC(=O)[C@H](CCCCN)NC(=O)c1cccnc1)C(=O)N[C@H](C(=O)N[C@@H](CCCCN)C(=O)N[C@@H](CO)C(=O)O)[C@@H](C)O [Comparative Example 2, nicotinoyl-pentapeptide (lysyl-threonyl-threonyl-lysyl-serine (SEQ ID No:12))] (HELM PEPTIDE1{[O=C(c1cccnc1)[*:2]].K.T.T.K.S}$$$$V2.0)	97.6	–	–	–
